Results as given in patent US10689377B2 (Mirati Therapeutics, Inc., priority 2017, dated 2020).
Counter-ions that a name gives are not always drawn.

Target: KRas G12C (Homo sapiens, UniProt P01116, G12C)
Experiment: Cellular inhibition of KRas G12C measured by Phospho-ERK in NCI-H358 cells
Format: cell-based
Settings: pERK(Thr202/Tyr204) normalized with GAPDH, NCI-H358 cells, 3 hours; read-out: IC50
Method in brief: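 Following 8-12 h attachment, NCI-H358 cells got serially diluted compound (0.5% DMSO) for 3 hours. Cells were then fixed, permeabilized with cold methanol, and stained for pERK(Thr202/Tyr204) and GAPDH. Ratios were converted to percent of DMSO control, with IC50 obtained by four-parameter regression.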

KRas G12C, sequence (P01116 1-188 isoform P01116-2 G12C): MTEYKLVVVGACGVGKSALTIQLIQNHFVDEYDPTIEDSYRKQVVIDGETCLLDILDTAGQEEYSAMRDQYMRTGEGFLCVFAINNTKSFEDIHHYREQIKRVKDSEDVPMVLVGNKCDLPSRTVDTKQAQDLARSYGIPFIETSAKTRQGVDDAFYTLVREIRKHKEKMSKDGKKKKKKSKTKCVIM

Row | IC50 [µM] | SMILES
1 | 0.0001 to 1 | Cc1cccc2cccc(N3CCc4c(nc(OC[C@@H]5CC(F)(F)CN5C)nc4N4CCN(C(=O)/C=C/CN5CC(F)C5)[C@@H](CC#N)C4)C3)c12 [Example 520, 2-[(2S)-4-[2-[[(2S)-4,4-difluoro-1-methyl-pyrrolidin-2-yl]methoxy]-7-(8-methyl-1-naphthyl)-6,8-dihydro-5H-pyrido[3,4-d]pyrimidin-4-yl]-1-[(E)-4-(3-fluoroazetidin-1-yl)but-2-enoyl]piperazin-2-yl]acetonitrile]
2 | 0.0001 to 1 | CN(C)C/C=C/C(=O)N1CCN(c2nc(OC[C@@H]3CCCN3C)nc3c2CCN(c2cccc(Cl)c2C(F)(F)F)C3)C[C@@H]1CC#N [Example 427]
3 | > 1 | C=CC(=O)N1CCN(c2nc(OCCN(C)CCOC)nc3c2CCN(c2cc(O)cc4ccccc24)C3)CC1 [Example 107, 1-(4-(7-(3-hydroxynaphthalen-1-yl)-2-(2-((2-methoxyethyl)(methyl)amino)ethoxy)-5,6,7,8-tetrahydropyrido[3,4-d]pyrimidin-4-yl)piperazin-1-yl)prop-2-en-1-one]
4 | 0.0001 to 1 | C=CC(=O)N1CCN(c2nc(OCCN3CCC[C@H](F)C3)nc3c2CCN(c2cc(O)cc4ccccc24)C3)CC1 [Example 111, (S)-1-(4-(2-(2-(3-fluoropiperidin-1-yl)ethoxy)-7-(3-hydroxynaphthalen-1-yl)-5,6,7,8-tetrahydropyrido[3,4-d]pyrimidin-4-yl)piperazin-1-yl)prop-2-en-1-one]
5 | 0.0001 to 1 | C=CC(=O)N1CCN(c2nc(O[C@H](C)CN3CCCCC3)nc3c2CCN(c2cc(O)cc4ccccc24)C3)CC1 [Example 75, (R)-1-(4-(7-(3-hydroxynaphthalen-1-yl)-2-((1-(piperidin-1-yl)propan-2-yl)oxy)-5,6,7,8-tetrahydropyrido[3,4-d]pyrimidin-4-yl)piperazin-1-yl)prop-2-en-1-one]
6 | 0.0001 to 1 | CN1CCC[C@H]1COc1nc2c(c(N3CCN(C(=O)C#CCO)[C@@H](CC#N)C3)n1)CCN(c1cccc3ccccc13)C2 [Example 474, 2-((S)-1-(4-hydroxybut-2-ynoyl)-4-(2-(((S)-1-methylpyrrolidin-2-yl)methoxy)-7-(naphthalen-1-yl)-5,6,7,8-tetrahydropyrido[3,4-d]pyrimidin-4-yl)piperazin-2-yl)acetonitrile]
7 | 0.0001 to 1 | C=CC(=O)N1CCN(c2nc(OC[C@@H]3CCCN3C(C)C)nc3c2CCN(c2cccc4ccccc24)C3)C[C@@H]1CC#N [Example 320, 2-[(2S)-4-[2-[[(2S)-1-isopropylpyrrolidin-2-yl]methoxy]-7-(1-naphthyl)-6,8-dihydro-5H-pyrido[3,4-d]pyrimidin-4-yl]-1-prop-2-enoyl-piperazin-2-yl]acetonitrile]
8 | 0.0001 to 1 | C=CC(=O)N1CCN(c2nc(OC[C@@H]3C[C@H](OC)CN3C)nc3c2CCN(c2cccc4ccccc24)C3)CC1CC#N (stereo partly drawn) [Example 222, 2-(1-acryloyl-4-(2-(((2S,4S)-4-methoxy-1-methylpyrrolidin-2-yl)methoxy)-7-(naphthalen-1-yl)-5,6,7,8-tetrahydropyrido[3,4-d]pyrimidin-4-yl)piperazin-2-yl)acetonitrile]
9 | > 1 | C=CC(=O)N1CCN(c2nc(OCCN3CCS(=O)(=O)CC3)nc3c2CCN(c2cc(O)cc4ccccc24)C3)CC1 [Example 33, 1-(4-(2-(2-(1,1-dioxidothiomorpholino)ethoxy)-7-(3-hydroxynaphthalen-1-yl)-5,6,7,8-tetrahydropyrido[3,4-d]pyrimidin-4-yl)piperazin-1-yl)prop-2-en-1-one trifluoroacetate]
10 | > 1 | CN(C)C/C=C/C(=O)N1CCN(c2nc(OC[C@@H]3CCCN3C)nc3c2CCN(c2cc(O)cc4ccccc24)C3)CC1 [Example 199, (S,E)-4-(dimethylamino)-1-(4-(7-(3-hydroxynaphthalen-1-yl)-2-((1-methylpyrrolidin-2-yl)methoxy)-5,6,7,8-tetrahydropyrido[3,4-d]pyrimidin-4-yl)piperazin-1-yl)but-2-en-1-one]
11 | 0.0001 to 1 | C=CC(=O)N1CCN(c2nc(OCCC(=O)N(C)C)nc3c2CCN(c2cccc4cccc(C)c24)C3)C[C@@H]1CC#N [Example 371, (S)-3-((4-(4-acryloyl-3-(cyanomethyl)piperazin-1-yl)-7-(8-methylnaphthalen-1-yl)-5,6,7,8-tetrahydropyrido[3,4-d]pyrimidin-2-yl)oxy)-N,N-dimethylpropanamide]
12 | > 1 | C=CC(=O)N1CCN(c2nc(OC[C@@H]3CCCN3C)nc3c2CCN(c2cnccc2OC)C3)C[C@@H]1CC#N [Example 340, 2-((S)-1-acryloyl-4-(7-(4-methoxypyridin-3-yl)-2-(((S)-1-methylpyrrolidin-2-yl)methoxy)-5,6,7,8-tetrahydropyrido[3,4-d]pyrimidin-4-yl)piperazin-2-yl)acetonitrile]
13 | 0.0001 to 1 | C=CC(=O)N1CCN(c2nc(OC[C@@H]3CCN(C)C3)nc3c2CCN(c2cc(O)cc4ccccc24)C3)CC1CC#N (stereo partly drawn) [Example 179, 2-[4-[7-(3-hydroxy-1-naphthyl)-2-[[(3R)-1-methylpyrrolidin-3-yl]methoxy]-6,8-dihydro-5H-pyrido[3,4-d]pyrimidin-4-yl]-1-prop-2-enoyl-piperazin-2-yl]acetonitrile]
14 | 0.0001 to 1 | C=CC(=O)N1CCN(c2nc(OCCN3CCCC[C@H]3C)nc3c2CCN(c2cc(O)cc4ccccc24)C3)CC1 [Example 97, (R)-1-(4-(7-(3-hydroxynaphthalen-1-yl)-2-(2-(2-methylpiperidin-1-yl)ethoxy)-5,6,7,8-tetrahydropyrido[3,4-d]pyrimidin-4-yl)piperazin-1-yl)prop-2-en-1-one]
15 | 0.0001 to 1 | C/C=C/C(=O)N1CCN(c2nc(OC[C@@H]3CCCN3C)nc3c2CCN(c2cccc4ccccc24)C3)CC1CC#N (stereo partly drawn) [Example 263, 2-[1-[(E)-but-2-enoyl]-4-[2-[[(2S)-1-methylpyrrolidin-2-yl]methoxy]-7-(1-naphthyl)-6,8-dihydro-5H-pyrido[3,4-d]pyrimidin-4-yl]piperazin-2-yl]acetonitrile]
16 | > 1 | C=CC(=O)N1CCN(c2nc(OC[C@@H]3CCCN3C)nc3c2CCN(c2ccccc2CC(F)(F)F)C3)CC1CC#N (stereo partly drawn) [Example 374, 2-(1-acryloyl-4-(2-(((S)-1-methylpyrrolidin-2-yl)methoxy)-7-(2-(2,2,2-trifluoroethyl)phenyl)-5,6,7,8-tetrahydropyrido[3,4-d]pyrimidin-4-yl)piperazin-2-yl)acetonitrile]
17 | > 1 | C=CC(=O)N1CCN(c2ncnc3c2CCN(c2cc(O)ccc2F)C3)CC1 [Example 5, 1-(4-(7-(2-fluoro-5-hydroxyphenyl)-5,6,7,8-tetrahydropyrido[3,4-d]pyrimidin-4-yl)piperazin-1-yl)prop-2-en-1-one]
18 | > 1 | C=CC(=O)N1CCN(c2nc(OC[C@@H]3CCNC3)nc3c2CCN(c2cc(O)cc4ccccc24)C3)CC1 [Example 146, 1-[4-[7-(3-hydroxy-1-naphthyl)-2-[[(3R)-pyrrolidin-3-yl]methoxy]-6,8-dihydro-5H-pyrido[3,4-d]pyrimidin-4-yl]piperazin-1-yl]prop-2-en-1-one]
19 | 0.0001 to 1 | C=CC(=O)N1CCN(c2nc(OC[C@H]3CCCN3C)nc3c2CCN(c2cccc(F)c2C(F)(F)F)C3)C[C@@H]1CC#N [Example 274, 2-((S)-1-acryloyl-4-(7-(3-fluoro-2-(trifluoromethyl)phenyl)-2-(((R)-1-methylpyrrolidin-2-yl)methoxy)-5,6,7,8-tetrahydropyrido[3,4-d]pyrimidin-4-yl)piperazin-2-yl)acetonitrile]
20 | 0.0001 to 1 | C=CC(=O)N1CCN(c2nc(OC[C@@H]3CCCN3C)nc3c2CCN(c2cccc4cccc(CC)c24)C3)C[C@@H]1CC#N [Example 360, 2-[(2S)-4-[7-(8-ethyl-1-naphthyl)-2-[[(2S)-1-methylpyrrolidin-2-yl]methoxy]-6,8-dihydro-5H-pyrido[3,4-d]pyrimidin-4-yl]-1-prop-2-enoyl-piperazin-2-yl]acetonitrile]
21 | > 1 | C=CC(=O)N1CCN(c2nc(OCCCN3CCOCC3)nc3c2CCN(c2cc(O)ccc2F)C3)CC1 [Example 42, 1-(4-(7-(2-fluoro-5-hydroxyphenyl)-2-(3-morpholinopropoxy)-5,6,7,8-tetrahydropyrido[3,4-d]pyrimidin-4-yl)piperazin-1-yl)prop-2-en-1-one]
22 | 0.0001 to 1 | C=CC(=O)N1CCN(c2nc(OC[C@@H]3CCCN3CCOC)nc3c2CCN(c2cc(O)cc4ccccc24)C3)CC1 [Example 144, (S)-1-(4-(7-(3-hydroxynaphthalen-1-yl)-2-((1-(2-methoxyethyl)pyrrolidin-2-yl)methoxy)-5,6,7,8-tetrahydropyrido[3,4-d]pyrimidin-4-yl)piperazin-1-yl)prop-2-en-1-one]
23 | > 1 | C=CC(=O)N1CCN(c2nc(OCCCN3CCOCC3)nc3c2CCN(c2cc(O)cc4cc(C)ccc24)C3)CC1 [Example 43, 1-(4-(7-(3-hydroxy-6-methylnaphthalen-1-yl)-2-(3-morpholinopropoxy)-5,6,7,8-tetrahydropyrido[3,4-d]pyrimidin-4-yl)piperazin-1-yl)prop-2-en-1-one]
24 | 0.0001 to 1 | C=CC(=O)N1CCN(c2nc(OC[C@@H]3CCCN3C)nc3c2CCN(c2cccc4ccc(F)cc24)C3)C[C@@H]1CC#N [Example 333, 2-[(2S)-4-[7-(7-fluoro-1-naphthyl)-2-[[(2S)-1-methylpyrrolidin-2-yl]methoxy]-6,8-dihydro-5H-pyrido[3,4-d]pyrimidin-4-yl]-1-prop-2-enoyl-piperazin-2-yl]acetonitrile]
25 | > 1 | Cc1cccc2cccc(N3CCc4c(nc(OC[C@@H]5CCCN5C)nc4N4CCN(C(=O)/C=C/c5cnn(C)c5)[C@@H](CC#N)C4)C3)c12 [Example 494, 2-((S)-1-((E)-3-(1-methyl-1H-pyrazol-4-yl)acryloyl)-4-(7-(8-methylnaphthalen-1-yl)-2-(((S)-1-methylpyrrolidin-2-yl)methoxy)-5,6,7,8-tetrahydropyrido[3,4-d]pyrimidin-4-yl)piperazin-2-yl)acetonitrile]
